Source: PMC10548512 (Chemical Science, 2023)

Legend:
[1] = test system: H1N1pdm09 virus (A/Netherlands/602/2009)
[2] = test system: H1 ectodomain; settings: pH 7.5

CC[C@H](C)[C@@H]1NC(=O)[C@H](CS)NC(=O)[C@H](CO)NC(=O)[C@H](CCCNC(=N)N)NC(=O)[C@H](CCCNC(=N)N)NC(=O)[C@H](Cc2ccc(O)cc2)NC(=O)[C@H](CCC(N)=O)NC(=O)[C@H](Cc2ccccc2)NC(=O)[C@H](CC(N)=O)NC(=O)[C@H](CC(C)C)NC(=O)[C@@H]2CSC(=N2)c2cc(ccn2)C[C@@H](C(=O)NCC(N)=O)NC(=O)[C@H](CC(N)=O)NC(=O)[C@H](CC(C)C)NC(=O)[C@H]([C@@H](C)CC)NC(=O)[C@H](CC(N)=O)NC(=O)[C@H](CC(C)C)NC1=O [M3]
Infection inhibition in single-concentration screen [1]: clear infection inhibition | IC50 ([1]; 1 h): 120 nM | Competition with fluorescein-labelled S5 for binding to H1 protein [2]: compete

H-CYYFTHSIFNNLIVFHBG-NH2 (sidechain bridge or staple) [M8]
Infection inhibition in single-concentration screen [1]: minimal to no activity | Competition with fluorescein-labelled S5 for binding to H1 protein [2]: showed competition

H-CLNFQYRRSCILNILNBG-NH2 (disulfide) [M4]
Infection inhibition in single-concentration screen [1]: did not show inhibition
